SMILES | melting point [°C]
CCOP(=O)(CNc1ccc(Cl)cc1[N+](=O)[O-])OCC | 94 to 95
ClC1=Nc2ccccc2Oc2cscc21 | 215 to 217
O=C1NCC(CCc2ccccc2F)O1 (stereo unspecified) | 73 to 74
CCc1cn(C(C)(C)C(=O)N(C)C)nc1-c1ccccc1Cl | 102 to 104
Cc1cc2c(-c3cccnc3Cl)nc(O)nc2s1 | > 300
FC(F)(F)c1cc(Cl)c(-n2ncc(-c3nc(Br)c(Br)[nH]3)n2)c(Cl)c1 | 234 to 235
C#CCN1C(=O)COc2ccc(N)cc21 | 136 to 140
COC=C(C(=O)OC)N(C)c1nc(-c2ccc(Cl)cc2)cs1 | 104 to 105
CSc1nc2c(Cl)ccc(-n3c(=O)cc(C(F)(F)F)n(C)c3=O)c2s1 | 79 to 81
CCCCNc1c(N)c(S)nc(C)c1C(=O)OCC | 103 to 105
CN1CCN(Cc2ccc(Cl)cc2Cl)C(C2(C)NCCN2)C1 (stereo unspecified) | 61 to 63
N#CC(Cc1c[nH]cn1)(c1ccc(Cl)cc1)c1cccc(Cl)c1 (stereo unspecified) | 138 to 140
COc1cc(Cl)c(C(=O)Nc2ccc(C(C)(C)C#N)cc2)cc1OC | 142 to 144
CS(=O)(=O)c1ccc(-c2cnn(-c3ccc(F)c(F)c3)c(=O)c2-c2cccc(F)c2)cc1 | 182 to 185
CC(C)c1nc(C(C)C)c(C(O)c2ccccc2)c(-c2ccc(F)cc2)c1CO (stereo unspecified) | 202 to 204
Oc1ncnc2cnc(NC3CC3)nc12 | > 240
O=C1CC(C(F)(F)F)CC(=O)N1c1cc(C2OCCCO2)c(Cl)cc1F | 158 to 161
O=C(O)C1=Cc2cc(Cl)cc(Cl)c2NC1C(F)(F)F (stereo unspecified) | 223 to 226
CC(C)n1cc(-c2nc(C(N)=O)c(N)nc2-c2ccc(F)c(F)c2)ccc1=O | 226
CCCCCCCCCCCCc1cc(CBr)on1 | 31.5 to 35
CCc1ccc2c(OCC(=O)O)c(C(C)C)nn2c1 | 118 to 119
O=C(Nc1cccc(F)c1)C1C(=O)Sc2ccccc21 (stereo unspecified) | 169 to 171
CCCCC[C@H](CC(=O)NCc1c(C(C)C)cccc1C(C)C)c1cccc2c1OCO2 | 133 to 134
C#CCn1cc(C(=O)OCC)c(C(F)(F)F)c1 | 58
COc1cc(C=C2COCC(=Cc3cc(OC)c(OC)c(OC)c3)C2=O)cc(OC)c1OC | 187 to 189
Cc1cc(C#N)ccc1N1CCCn2c1nc1c(Cl)ccc(C(OCC(F)(F)F)C3CC3)c12 (stereo unspecified) | 207 to 209

SMILES | melting point [°C]
CCOCc1nc2c(N)nc3cc(CCCO)ccc3c2n1CC(C)(C)O | 177 to 178
CC1(C)Oc2ccc(C#N)cc2[C@@H](NC2=C(F)C(=O)CC2)[C@@H]1O (relative stereo) | 250 to 252
CN(C(=O)c1ccc(Cl)cc1)c1ccccc1CCCC(C(=O)O)C(=O)O | 117 to 118
COc1cc(/C=C/C(=O)CC(=O)c2ccccc2)ccc1O | 159 to 162
COc1cc(OC)c(C(=O)C=Cc2ccc3c(c2)OCO3)c(OP(=O)(O)O)c1 | 79 to 80
CC(C)CC(=O)Nc1cccc(-c2ccnc3c(-c4cccc(N)c4)cnn23)c1 | 173 to 175
COC(=O)c1cccc(NC(=S)Nc2cc(C(=O)Nc3ccccc3)ccc2OC)c1 | 178 to 180
Cc1cc(C)c(S(=O)(=O)OCCCCOS(=O)(=O)c2c(C)cc(C)cc2C)c(C)c1 | 109
COC(=O)C(CCO)NS(=O)(=O)c1ccc(Cl)cc1 (racemic) | 91 to 92
COCc1ccc2c(c1S(N)(=O)=O)S(=O)(=O)C(C)C2 (stereo unspecified) | 115
Cc1oc(-c2cccs2)nc1COc1ccc(CON=C(CCC(=O)O)c2ccccc2)cc1 | 142 to 143
C#CCOc1ccc2cc(C(=O)OCC)c(=O)oc2c1 | 252
CCN1C(=O)c2ccc(C)cc2Oc2ncccc21 | 88 to 90
CCCCCCCCCCCCC1(Cn2ccnc2)SCC(CCCC)S1 (stereo unspecified) | 156 to 161
CN(C)CCCC1CCCN(C(=O)N2c3ccccc3C(=O)Nc3cccnc32)C1 (stereo unspecified) | 115 to 117
COc1ccc(/C=C/c2nc3c([nH]2)c(=O)n(C)c(=O)n3C)c(C)c1C | > 275
Cc1cc2ncnn2nc1OCCOCCN1CCC(OC(c2ccccc2)c2ccccc2)CC1 | 80 to 82
Cc1ccc(C(=O)Nc2c(NC(=O)CN3CCN(c4ccccc4)CC3)ccc3c2C(=O)c2ccccc2C3=O)cc1 | 270 to 271
O=c1c2c[nH]c3c(c-2nn1-c1ccc(Cl)cc1)COCC3 | 335 to 337
Cc1ccc2c(c1)c1c(n2Cc2ccccc2)CCCC1C(=O)O (stereo unspecified) | 200 to 208
Cc1ncc2cc(-c3c(Cl)cccc3Cl)c(N=CN(C)C)nc2n1 | 236 to 238
O=C1N(N2CCOCC2)c2ccccc2C1(Cc1ccncc1)Cc1ccncc1 | 200 to 203
CCn1c2c(c3ccccc31)Cc1c(C(=O)OC)c(C(=O)OC)c(C)n1C2 | 202 to 203
CCc1ccc2c(O)c(CO)cnc2c1 | 180 to 182
COc1ccc(S(=O)(=O)Nc2c(/C=C/c3ccncc3)cccc2OC)cc1 | 205 to 206
COC(=O)CCCCCCC(=O)c1ccc(OC)cc1 | 57 to 58

SMILES | melting point [°C]
COc1ccc(-c2nc(N)ncc2-c2ccc(=O)n(C(C)C)n2)cc1 | 216
Cc1noc2cc(F)c(-n3c(=O)cc(C(F)(F)F)n(C)c3=O)cc12 | 158 to 159
CCOC(=O)COc1ccc(N)cc1C(F)(F)F | 78 to 80
Nc1nc(Cl)cc(-c2ccco2)n1 | 133 to 140
O=C(c1ccccc1)c1cccc2c(Cl)c[nH]c12 | 145 to 149
CN1CCN(Cc2cnc(S)n2Cc2cc(F)cc(F)c2)CC1 | 200 to 201
COc1ccc(C2CC(c3ccc(OC)c(OC)c3)=NN2c2ccc(C(=O)O)cc2)cc1 (stereo unspecified) | 141
COc1ccnc(CCc2nc3cc(-c4ccc(N)cc4)cnc3[nH]2)c1 | 117 to 119
O=C(CNC(=O)OCc1ccccc1)NCCCCCCO | 104 to 105
CCOC(=O)C1=C(c2ccc(-n3c(C)nc4cnccc43)cc2)NC(=O)NC1c1ccccc1Cl (stereo unspecified) | > 300
COc1cc(OC)c(C(=O)O)c(C(F)(F)F)n1 | 194 to 198
COc1ccc(CCCC2SC(=O)NC2=O)c2ccc(=O)n(C)c12 (stereo unspecified) | 172 to 175
COc1ccc(C(=O)OC2C=C(C)C(=O)CC(C)(C)C2OC(C)=O)cc1 (stereo unspecified) | 93 to 94
CCSC1=NCC(=O)N1c1ccc(F)cc1 | 114 to 115
CCCN(CCC)c1c(CC)nn2c(-c3c(C)cc(C)cc3OC)cccc12 | 72.3 to 74.6
COC(=O)c1c(CNC(=O)c2ccc(C(=O)O)cc2)ccc2c1C(C)(C)CCC2(C)C | 95 to 100
CC(C)(C)c1cc(C(c2ccc(C#N)cc2)N2CCCCC2)c(O)c(C(C)(C)C)c1 (stereo unspecified) | 165 to 166
Cc1ccc(NC(=O)N(C)Cc2cccc3c2CN(C2CCC(=O)NC2=O)C3=O)cc1Cl (stereo unspecified) | 248 to 250
CCCc1cc(Cl)c(OC(C(=O)O)c2ccccc2)c(C(C)=O)c1O (stereo unspecified) | 131 to 133
CC1(C)[C@@H](CNc2ncccc2C#N)CC[C@@]1(C)NCC(=O)N1C[C@@H](F)C[C@H]1C#N | 96 to 99
CCN(CC)CC1CCCCN1CC(=O)N1c2ccccc2NC(=O)c2c1c(C)cn2C (stereo unspecified) | 176 to 178
C[C@@H](c1ccc(F)cc1)N1CCN(c2cc(Nc3ccc4cccnc4c3)ncn2)CC1 | 206 to 207
NC(=O)[C@H]1CCc2c(sc3nc(CN4C(=O)COC4=O)c(Cl)c(-c4ccc(O)cc4)c23)C1 | 317 to 318
CN1C(=O)N(C)S(=O)(=O)N(c2ccc(Cl)cc2)C1=O | 82 to 84
O=C(O)CCC(=NO)c1ccc(-c2ccc(Cl)cc2)cc1 | 155 to 157
CCOC(=O)c1[nH]c2cc(-c3ccccc3)ccc2c1N | 181 to 183

SMILES | melting point [°C]
C#CCOc1cc(Oc2ccc(Cl)c(Cl)c2)ncn1 | 109
CC(C)(C)C(O)(Cn1cncn1)C(Cl)=CBr (stereo unspecified) | 45 to 48
CCOC(=O)C1=C(C)Nc2nc(N)nc(N)c2C1c1ccc(OC)cc1 (stereo unspecified) | 98
C[C@@H](c1ccc(Br)cc1)N(CC[C@](O)(CC(C)(C)O)c1ccccc1)C(=O)Oc1ccccc1 | 129 to 131
FC(F)(F)Oc1ccc2nc(NC(=S)Nc3ccccc3)sc2c1 | 234
Cc1ccccc1OCCC1CCN(c2cc(Cl)nnc2Cl)CC1 | 106 to 108
Clc1ccc2c(c1)C(c1ccccc1Cl)=NCc1c[nH]cc1-2 | 204 to 206
N#Cc1ccc(C=C(C(=O)C2CC2)C(=O)C2CC2)cc1 | 100 to 102
Cc1nnnn1-c1ccccc1C(=O)O | 157 to 160
CN1C(=O)c2c(n3cncc3c3[nH]c4ncccc4c23)C1=O | 304 to 307
CCOC(=O)c1cn(C2CC2)c2cc(F)c(F)c(N(Cc3ccccc3)C(C)=O)c2c1=O | 147 to 150
Cc1c(CON2C(=O)c3ccccc3C2=O)ncn1C(c1ccccc1)(c1ccccc1)c1ccccc1 | 220 to 223
O=C(NCc1ccc(Cl)cc1)c1ccc2cnccc2n1 | 110 to 111
COc1ccc2c(c1)C13CCN(C)C(C2)C1(OC(C)=O)CCOC3 (stereo unspecified) | 161 to 163
COc1ccc2sc(C(=O)NCCCCC(=O)O)c(OC(C)C)c2c1 | 135 to 137
N#CC1=C(C2CCC2)Nc2n[nH]cc2C1c1cccc(C#N)c1Br (stereo unspecified) | 278
N=c1sc2cc(OC(F)(F)F)ccc2n1CC(N)=O | 228
CN=C(NC#N)C1=CC(CF)(CF)Oc2ccc(C(F)(F)C(F)(F)F)cc21 | 178 to 179
N#Cc1cc(Oc2ccc(Cl)cc2)ccc1[N+](=O)[O-] | 120 to 122
CN1CCN(CC(=O)O)CC1 | 158 to 160
Cc1c(Br)c(=O)n(C2CCCC2)c2nc(Nc3ccccn3)ncc12 | 267 to 268
O=S(=O)(C(=CNc1ccccc1C(F)(F)F)S(=O)(=O)c1ccc(Cl)cc1)c1ccc(Cl)cc1 | 169 to 171
CCOc1cccc(COc2ccc3c(c2)C=C(C(=O)Nc2ccc(CN(C)C4CCOCC4)cc2)CCS3(=O)=O)c1 | 189 to 192
